Measurements from patent publication US10501482B2, “Compounds for treating spinal muscular atrophy” (Hoffmann-La Roche Inc., priority 2013, dated 2019).
Structures can show the parent of a compound that is named as a salt.

Legend:
[1] = tested on: full length SMN2 minigene mRNA (FL SMN2mini) in HEK293H cells stably transfected with the SMN2-A minigene construct; test: SMN2 minigene mRNA splicing RT-qPCR assay in cultured cells; assay type: cell-based; settings: Homo sapiens, HEK293-H, 24 hours, 7-point concentration curve, concentration giving 1.5-fold FL SMN2mini mRNA vs vehicle, read-out: EC1.5x minigene (EC1.5x concentration for production of full length SMN2 minigene mRNA)
Experimental: The reverse transcription-quantitative PCR-based (RT-qPCR) assay is used to quantify the level of the full length SMN2 minigene (referred to herein by the term “FL SMN2mini”) mRNA containing SMN2 exon 7 in a HEK293H cell line stably transfected with said minigene and treated with a test compound.
The SMN2-A minigene construct was prepared as described in International Patent Application WO2009/151546A1 page 145 paragraph [00400] to page 147 paragraph [00412](incl. FIG. 1 and FIG. 3 therein).
HEK293H cells stably transfected with the SMN2-A minigene construct (10,000 cells/well) are seeded in 200 μL of cell culture medium (DMEM plus 10% FBS, with 200 μg/mL hygromycin) in 96-well flat-bottom plates and the plate is immediately swirled to ensure proper dispersal of cells and the formation of an even monolayer of cells. Cells are allowed to attach for 6 hours. […] A solution of test compound (1 μL, 200× in DMSO) is added to each cell-containing well and the plate is incubated for 24 hours in a cell culture incubator (37° C., 5% CO2, 100% relative humidity). 2 replicates are prepared for each test compound concentration. The cells are then lysed in the Cells-To-Ct lysis buffer and the lysate is stored at −80° C.
Full length SMN2-A minigene and GAPDH mRNA are quantified using the primers and probes referenced in Table 1. Primer SMN Forward A (SEQ ID NO.1) hybridizes to a nucleotide sequence in exon 7 (nucleotide 22 to nucleotide 40), primer SMN Reverse A (SEQ ID NO.2) hybridizes to a nucleotide sequence in the coding sequence of Firefly luciferase, SMN Probe A (SEQ ID NO.3) hybridizes to a nucleotide sequence in exon 7 (nucleotide 50 to nucleotide 54) and exon 8 (nucleotide 1 to nucleotide 21). The combination of these three oligonucleotides detects only SMN1 or SMN2 minigenes (RT-qPCR) and will not detect endogenous SMN1 or SMN2 genes.
The SMN forward and reverse primers are used at final concentrations of 0.4 μM. The SMN probe is used at a final concentration of 0.15 μM. The GAPDH primers are used at final concentrations of 0.2 μM and the probe at 0.15 μM.
The SMN2-minigene GAPDH mix (15 μL total volume) is prepared by combining 7.5 μL of 2×RT-PCR buffer, 0.4 μL of 25×RT-PCR enzyme mix, 0.75 μL of 20×GAPDH primer-probe mix, 4.0075 μL of water, 2 μL of 10-fold diluted cell lysate, 0.06 μL of 100 μM SMN forward primer, 0.06 μL of 100 μM SMN reverse primer, and 0.225 μL of 100 μM SMN probe.
PCR is carried out at the following temperatures for the indicated time: Step 1: 48° C. (15 min); Step 2: 95° C. (10 min); Step 3: 95° C. (15 sec); Step 4: 60° C. (1 min); then repeat Steps 3 and 4 for a total of 40 cycles.
Each reaction mixture contains both SMN2-A minigene and GAPDH primers/probe sets (multiplex design), allowing simultaneous measurement of the levels of two transcripts.
The increase in the abundance of the FL SMN2mini mRNA relative to that in cells treated with vehicle control is determined from real-time PCR data using a modified ΔΔCt method (as described in Livak and Schmittgen, Methods, 2001, 25:402-8). The amplification efficiency E is calculated from the slope of the amplification curve for FL SMN2mini and GAPDH individually. The abundance of FL SMN2mini and GAPDH mRNA are then calculated as (1+E)^−Ct, where Ct is the threshold value for each amplicon. The abundance of FL SMN2mini mRNA is normalized to GAPDH mRNA abundance. The normalized FL SMN2mini mRNA abundance from test compound-treated samples is then divided by normalized FL SMN2mini mRNA abundance from vehicle-treated cells to determine the level of FL SMN2mini mRNA relative to vehicle control.
Table 2 provides EC1.5x concentrations for production of full length SMN2 minigene mRNA that was obtained from the 7-point concentration data generated according to the above procedure for particular compounds of the present invention.

SMN protein = SMN protein assay (HTRF) in cultured SMA patient fibroblast cells; assay type: cell-based; settings: SMA Type 1 human fibroblasts GM03813, 48 hours; for EC1.5x SMN protein (EC1.5x concentration for SMN protein expression): 7-point concentration curve, concentration giving 1.5 times SMN protein vs vehicle; for max. fold increase (maximum fold increase of SMN protein): 7-point concentration data, fold vs vehicle control
Experimental: The SMN HTRF (homogeneous time resolved fluorescence) assay is used to quantify the level of SMN protein in SMA patient fibroblast cells treated with test compounds.
Cells are thawed and cultured in DMEM-10% FBS for 72 hours. Cells are trypsinized, counted and re-suspended to a concentration of 25,000 cells/mL in DMEM-10% FBS. The cell suspensions are plated at 5,000 cells per well in a 96 well microtiter plate and incubated for 3 to 5 hours. […] 1 μL of test compound solution is transferred to cell-containing wells and cells are incubated for 48 hours in a cell culture incubator (37° C., 5% CO2, 100% relative humidity). Triplicate samples are set up for each test compound concentration. After 48 hours, the supernatant is removed from the wells and 25 μL of the RIPA lysis buffer, containing protease inhibitors, is added to the wells and incubated with shaking at room temperature for 1 hour. 25 μL of the diluent is added and then 35 μL of the resulting lysate is transferred to a 384-well plate, where each well contains 5 μL of the antibody solution (1:100 dilution of anti-SMN d2 and anti-SMN kryptate in SMN reconstitution buffer). The plate is centrifuged for 1 minute to bring the solution to the bottom of the wells, then incubated overnight at room temperature. Fluorescence for each well of the plate at 665 nm and 620 nm is measured on an EnVision multilabel plate reader (Perkin-Elmer).
The normalized fluorescence signal is calculated for each sample, Blank and vehicle control well by dividing the signal at 665 nm by the signal at 620 nm. Normalizing the signal accounts for possible fluorescence quenching due to the matrix effect of the lysate. The ΔF value (a measurement of SMN protein abundance as a percent value) for each sample well is calculated by subtracting the normalized average fluorescence for the Blank control wells from the normalized fluorescence for each sample well, then dividing this difference by the normalized average fluorescence for the Blank control wells and multiplying the resulting value by 100. The ΔF value for each sample well represents the SMN protein abundance from test compound-treated samples. The ΔF value for each sample well is divided by the ΔF value for the vehicle control wells to calculate the fold increase in SMN protein abundance relative to the vehicle control. Table 3 provides EC1.5x concentrations for SMN protein expression that was obtained from the 7-point concentration data generated according to the above procedure for particular compounds of the present invention.
Table 4 provides the maximum fold increase of SMN protein that was obtained from the 7-point concentration data generated according to the above procedure for particular compounds of the present invention

Row | SMILES | EC (1.5-fold) [1] [µM] | EC1.5x SMN protein (EC1.5x concentration for SMN protein expression) (SMN protein) [µM] | max. fold increase (maximum fold increase of SMN protein) (SMN protein)
1 | Cc1cn2cc(NC(=O)c3ccc(N4CCNC(C)C4)nc3)cc(F)c2n1 (racemic) [Example 42, rac-N-(8-fluoro-2-methylimidazo-[1,2-a]pyridin-6-yl)-6-(3-methyl-piperazin-1-yl)-nicotinamide dihydrochloride] | 0.0544 | 0.1488 | 1.6988
2 | Cc1cn2cc(NC(=O)c3ccc(N4CCNC(C)C4)cc3)nc2c(C)n1 (racemic) [Example 2, rac-N-(6,8-dimethyl-imidazo[1,2-a]-pyrazin-2-yl)-4-(3-methylpiperazin-1-yl)benzamide] | 0.14 | 0.2984 | 1.8878
3 | COc1cc(N2CCNC(C)C2)ncc1C(=O)Nc1cc(F)c2nc(C)cn2c1 (racemic) [Example 76, rac-N-(8-fluoro-2-methylimidazo[1,2-a]pyridin-6-yl)-4-methoxy-6-(3-methylpiperazin-1-yl)nicotinamide] | 0.0187 | 0.1629 | 1.7274
4 | Cc1cn2cc(NC(=O)c3ccc(N4CCN(C)CC4)cn3)nc2c(C)n1 [Example 9, N-(6,8-dimethyl-imidazo[1,2-a]-pyrazin-2-yl)-5-(4-methyl-piperazin-1-yl)picolinamide] | 0.794 | 1.527 | 1.6085
5 | Cc1cn2cc(NC(=O)c3ccc(N4CCNCC4)cc3F)ccc2n1 [Example 44, 2-fluoro-N-(2-methylimidazo[1,2-a]pyridin-6-yl)-4-(piperazin-1-yl)-benzamidehydro-chloride] | 0.0648 | 0.13 | 1.8243
6 | Cc1cn2cc(NC(=O)c3cnc(N4CCNC(C)C4)c(F)c3)cc(F)c2n1 (racemic) [Example 47, rac-5-fluoro-N-(8-fluoro-2-methyl-imidazo[1,2-a]-pyridin-6-yl)-6-(3-methylpiperazin-1-yl)nicotinamide hydrochloride] | 0.396 | 0.611 | 1.7065
7 | Cc1cn2cc(NC(=O)c3cnc(N4CCNCC4)cc3F)cc(F)c2n1 [Example 68, 4-fluoro-N-(8-fluoro-2-methylimidazo[1,2-a]pyridin-6-yl)-6-(piperazin-1-yl)nicotinamide] | 0.0285 | 0.057 | 1.6943
8 | Cc1nc2c(F)cc(NC(=O)c3ccc(N4CCNCC4)nc3)cc2o1 [Example 26, N-(4-Fluoro-2-methylbenzo-oxazol-6-yl)-6-piperazin-1-yl-nicotinamide] | 0.0445 | 0.2853 | 1.8316
9 | COc1nc(N2CCNC(C)(C)C2)ccc1C(=O)Nc1cc(F)c2nc(C)cn2c1 [Example 75, 6-(3,3-dimethyl-piperazin-1-yl)-N-(8-fluoro-2-methyl-imidazo[1,2-a]-pyridin-6-yl)-2-methoxynicotinamide] | 0.0654 | 0.3061 | 1.7035
10 | Cc1cn2cc(NC(=O)c3ccc(N4CCNC(C)C4)c(F)c3F)cc(F)c2n1 (racemic) [Example 45, rac-2,3-difluoro-N-(8-fluoro-2-methylimidazo[1,2-a]pyridin-6-yl)-4-(3-methylpiperazin-1-yl)benzamide hydrochloride] | 0.0615 | 0.5147 | 1.6445
11 | Cc1cn2cc(NC(=O)c3ccc(C4=CCNCC4)nc3)cc(F)c2n1 [Example 62, N-(8-fluoro-2-methylimidazo[1,2-a]pyridin-6-yl)-6-(1,2,3,6-tetra-hydropyridin-4-yl)nicotinamide dihydrochloride] | 0.0136 | – | 1.5583
12 | Cc1cn2cc(NC(=O)c3ccc(N4CCNC(C)(C)C4)nc3)ccc2n1 [Example 13, 6-(3,3-dimethyl-piperazin-1-yl)-N-(2-methyl-imidazo[1,2-a]-pyridin-6-yl)-nicotinamide] | 1.03 | 1.7564 | 1.624
13 | Cc1cn2cc(NC(=O)c3ccc(N4CCNC(C)C4)nc3)ccc2n1 (racemic) [Example 12, rac-N-(2-methyl-imidazo[1,2-a]-pyridin-6-yl)-6-(3-methyl-piperazin-1-yl)nicotinamide] | 0.312 | 0.7037 | 1.6512
14 | Cc1cn2cc(NC(=O)c3ccc(N4CCNCC4)nc3OCC(F)(F)F)cc(F)c2n1 [Example 73, N-(8-fluoro-2-methylimidazo[1,2-a]pyridin-6-yl)-6-(piperazin-1-yl)-2-(2,2,2-trifluoro-ethoxy)nicotinamide] | 0.062 | 0.7589 | 1.5775
